In patent US8710224B2, “Heterocyclic compounds as CCR2B antagonists” (AstraZeneca AB, priority 2004, dated 2014):

What follows are compounds tested against T1, recombinant human CCR5 receptor (Homo sapiens, UniProt P51681) (assay: Radioligand binding assay for inhibition of the binding of MIP-1α). Details: displacement of 0.1 nM iodinated MIP-1α; membranes of Chinese hamster ovary cells expressing CCR5.
T1 construct: expressed in transfected cells; host or cells: Chinese hamster ovary (CHO) cells; membranes
T1 sequence (P51681 whole entry): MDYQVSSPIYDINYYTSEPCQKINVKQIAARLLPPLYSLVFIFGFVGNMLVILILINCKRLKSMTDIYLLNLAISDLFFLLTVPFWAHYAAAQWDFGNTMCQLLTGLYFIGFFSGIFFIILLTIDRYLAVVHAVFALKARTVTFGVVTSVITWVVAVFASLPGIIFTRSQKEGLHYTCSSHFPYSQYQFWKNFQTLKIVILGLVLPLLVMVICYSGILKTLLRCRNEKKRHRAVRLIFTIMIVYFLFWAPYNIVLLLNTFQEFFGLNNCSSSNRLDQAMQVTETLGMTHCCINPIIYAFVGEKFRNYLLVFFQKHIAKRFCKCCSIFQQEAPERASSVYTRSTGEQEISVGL
Procedure, shortened: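 Membranes from CHO cells expressing recombinant human CCR5 were incubated with 0.1 nM iodinated MIP-1α, scintillation proximity beads and compound at various concentrations. Bound radioligand was measured by scintillation counting.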

IC50, < 10 µM:
CS(=O)(=O)c1ccc(CCCN2CCC[C@@H](CN3CCN(C(=O)Nc4ccc(Cl)cc4)CC3)C2)cc1 [Example 325, N-(4-Chlorophenyl)-4-[((3R)-1-{3-[4-(methylsulfonyl)phenyl]propyl}piperidin-3-yl)methyl]piperazine-1-carboxamide]
O=C(Nc1ccc(Cl)c(Cl)c1)N1CCN(C(=O)C2CCN([C@H]3CC[C@](O)(c4ccccn4)CC3)C2)CC1 (stereo partly drawn) [Example 146, N-(3,4-dichlorophenyl)-4-{[1-(4-hydroxy-4-pyridin-2-ylcyclohexyl)pyrrolidin-3-yl]carbonyl}piperazine-1-carboxamide]
O=C1CN(C(=O)Nc2ccc(Cl)c(Cl)c2)CCN1CC1CCCN(Cc2ccccc2)C1 (stereo not drawn) [Example 42, 4-[(1-benzylpiperidin-3-yl)methyl]-N-(3,4-dichlorophenyl)-3-oxopiperazine-1-carboxamide]
O=C(Nc1ccc(Cl)c(Cl)c1)N1CCN(CC2CCCN(CC(O)c3cccc[n+]3[O-])C2)CC1 (stereo in doubt) [Example 267, N-(3,4-dichlorophenyl)-4-({(3R)-1-[2-hydroxy-2-(1-oxidopyridin-2-yl)ethyl]piperidin-3-yl}methyl)piperazine-1-carboxamide]
CC(C)N1CCO[C@@H](CN2CCN(C(=O)Nc3ccc(C(F)(F)F)nc3)CC2)C1 [Example 192, 4-{[(2S)-4-isopropylmorpholin-2-yl]methyl}-N-[6-(trifluoromethyl)pyridin-3-yl]piperazine-1-carboxamide]
O=C(Nc1ccc(Cl)c(Cl)c1)N1CCN(C(=O)[C@H]2CN(CCc3ccccc3)CCN2)CC1 [Example 138, N-(3,4-Dichlorophenyl)-4-{[(2R)-4-(2-phenylethyl)piperazin-2-yl]carbonyl}piperazine-1-carboxamide]
O=C(Nc1ccc(C(F)(F)F)c(Cl)c1)N1CCN(C[C@@H]2CCCN(C3CC3)C2)CC1 [Example 106, N-[3-chloro-4-(trifluoromethyl)phenyl]-4-{[(3S)-1-cyclopropylpiperidin-3-yl]methyl}piperazine-1-carboxamide]
C=C(C)CN1CCN[C@@H](C(=O)N2CCN(C(=O)Nc3ccc(Cl)c(Cl)c3)CC2)C1 [Example 304, N-(3,4-dichlorophenyl)-4-{[(2R)-4-(2-methylprop-2-en-1-yl)piperazin-2-yl]carbonyl}piperazine-1-carboxamide]
CC(Cc1ccccc1)N1CCCC(CN2CCN(C(=O)Nc3ccccc3)CC2)C1 (stereo in doubt) [Example 246, 4-[[(3R)-1-(1-methyl-2-phenyl-ethyl)-3-piperidyl]methyl]-N-phenyl-piperazine-1-carboxamide]
CC(C)N1CCN[C@@H](C(=O)N2CCN(C(=O)Nc3ccc(Cl)c(F)c3)CC2)C1 [Example 265, N-(4-Chloro-3-fluorophenyl)-4-{[(2R)-4-isopropylpiperazin-2-yl]carbonyl}piperazine-1-carboxamide]
O=C(Nc1ccc(Cl)c(Cl)c1)N1CCN(C[C@@H]2CCCN(CCOc3ccc(F)cc3)C2)CC1 [Example 171, N-(3,4-Dichlorophenyl)-4-({(3S)-1-[2-(4-fluorophenoxy)ethyl]piperidin-3-yl}methyl)piperazine-1-carboxamide]
C[C@H](CC1CCCC1)N1CCO[C@@H](CN2CCN(C(=O)Nc3ccc(F)c(Cl)c3)CC2)C1 [Example 234, N-(3-chloro-4-fluorophenyl)-4-({(2S)-4-[(1R)-2-cyclopentyl-1-methylethyl]morpholin-2-yl}methyl)piperazine-1-carboxamide]
O=C(Nc1ccc(Cl)c(Cl)c1)N1CCN(C[C@@H]2CCCN(C3Cc4ccccc4C3)C2)CC1 [Example 161, N-(3,4-dichlorophenyl)-4-{[(3S)-1-(2,3-dihydro-1H-inden-2-yl)piperidin-3-yl]methyl}piperazine-1-carboxamide]
C=CCN1CCN[C@@H](C(=O)N2CCN(C(=O)Nc3ccc(Cl)c(Cl)c3)CC2)C1 [Example 303, N-(3,4-dichlorophenyl)-4-{[(2R)-4-(prop-2-en-1-yl)piperazin-2-yl]carbonyl}piperazine-1-carboxamide]
CCN1CCN[C@@H](C(=O)N2CCN(C(=O)Nc3ccc(Cl)c(Cl)c3)CC2)C1 [Example 133, N-(3,4-Dichlorophenyl)-4-{[(2R)-4-ethylpiperazin-2-yl]carbonyl}piperazine-1-carboxamide]
CC(C)N1CCN[C@@H](C(=O)N2CCN(C(=O)Nc3ccc(F)c(Cl)c3)CC2)C1 [Example 216]
Cc1ccc(NC(=O)N2CCN(CC3CCCN(C)C3)CC2)cc1Cl (stereo not drawn) [Example 26, N-(3-chloro-4-methylphenyl)-4-[(1-methylpiperidin-3-yl)methyl]piperazine-1-carboxamide]
Cc1ccc(NC(=O)N2CCN(C[C@@H]3CCCN(CCCc4ccc(S(C)(=O)=O)cc4)C3)CC2)cc1Cl [Example 324, N-(3-Chloro-4-methylphenyl)-4-[((3R)-1-{3-[4-(methylsulfonyl)phenyl]propyl}piperidin-3-yl)methyl]piperazine-1-carboxamide]
Cc1cccnc1CN1CCC[C@@H](CN2CCN(C(=O)Nc3ccc(Cl)c(Cl)c3)CC2)C1 [Example 44, N-(3,4-dichlorophenyl)-4-({(3S)-1-[(3-methylpyridin-2-yl)methyl]piperidin-3-yl}methyl)piperazine-1-carboxamide]
COCCN1CCC[C@@H](CN2CCN(C(=O)Nc3ccc(Cl)c(Cl)c3)CC2)C1 [Example 113, N-(3,4-dichlorophenyl)-4-{[(3S)-1-(2-methoxyethyl)piperidin-3-yl]methyl}piperazine-1-carboxamide]
COc1ccc(CN2CCC[C@@H](CN3CCN(C(=O)Nc4ccccc4)CC3)C2)cn1 [Example 247, 4-({(3R)-1-[(6-methoxypyridin-3-yl)methyl]piperidin-3-yl}methyl)-N-phenyl piperazine-1-carboxamide]
O=C(Nc1ccc(Cl)c(Cl)c1)N1CCN(C[C@@H]2CCCN(CCc3ccc(Cl)cc3)C2)CC1 [Example 154, 4-({(3R)-1-[2-(4-Chlorophenyl)ethyl]piperidin-3-yl}methyl)-N-(3,4-dichlorophenyl)piperazine-1-carboxamide]
CC(C)N1CCN[C@@H](C(=O)N2CCN(C(=O)Nc3ccc(Cl)c(C(F)(F)F)c3)CC2)C1 [Example 213, N-[4-chloro-3-(trifluoromethyl)phenyl]-4-{[(2R)-4-isopropylpiperazin-2-yl]carbonyl}piperazine-1-carboxamide]
O=C(Nc1ccc(Cl)c(Cl)c1)N1CCN(C[C@H]2CN(C3CCCC3)CCO2)CC1 [Example 118, 4-{[(2S)-4-cyclopentylmorpholin-2-yl]methyl}-N-(3,4-dichlorophenyl)piperazine-1-carboxamide]
